The values below come from US20100069345A1, “Lanthanide-porphyrin complexes as anti-tumor agents” (priority 2005, published 2010).

Data set [1] has as its system cisplatin-resistant variant (CNE2) of human nasopharyngeal carcinoma cells. The experiment in a line: MTT cell viability assay, CNE2. In kind it is cell-based. The following applies: for IC50: MTT, 37° C., 48 h, mean ± SD. An excerpt:
(§1) Human cervical epitheloid carcinoma cells (HeLa), human hepatocellular carcinoma cells (HepG2 and Hep3B), human breast cancer cells (MCF-7), human coloadenocarcinoma cells (HCT-8), and normal human lung fibroblast cells (CCD-19Lu) were purchased from American Type Culture Collection (ATCC) Rockville, Md., USA. The human hepatocellular cancinoma cells QGY-7703, and the multi-drug resistant cell line QGY-TR50 derived from QGY-7703, were generously provided by Prof. Yong Xie (The Hong Kong University of Science and Technology, Hong Kong PRC). QGY-TR50 cells were isolated and cultured as described (J. Zhou, S. C. Cheng, D. Luo, Y. Xie Biochem. Biophys. Res. Commun. 2001, 280, 1237-1242). Human nasopharyngeal carcinoma cells (SUNE1 and its cisplatin-resistant variant—CNE2) were derived from poorly differentiated NPC in Chinese patients and were generously provided by Dr. S. W. Tsao (The University of Hong Kong, Hong Kong PRC). Cell culture flasks and 96-well microtitre plates were from Nalge Nunc Int. Culture medium, other medium constituents and phosphate buffer saline (PBS) were obtained by Gibco BRL Rockville, Md., USA. Cell Proliferation kit I (MTT) was purchased from Roche. Mannheim, Germany.
In general terms: Tetrazolium dyes change colour on reduction, which living cells bring about.

Data set [2] deals with human breast cancer cells (MCF-7). The data set is described as follows: MTT cell viability assay, MCF-7. The following applies: MTT, 37° C., 48 h; mean ± SD. In kind it is cell-based.
Source text: as §1

The subject of data set [3] is normal human lung fibroblast cells (CCD-19Lu). The experiment in a line: MTT cell viability assay, CCD-19Lu. In kind it is cell-based. The following applies: for IC50: MTT, 37° C., 48 h, mean ± SD; for IC50 ratio cisplatin/complex, CCD-19Lu: IC50 of cisplatin divided by IC50 of complex.
Source text: as §1

The test system of data set [4] is human nasopharyngeal carcinoma cells (SUNE1). The experiment in a line: MTT cell viability assay, SUNE1. In kind it is cell-based. To be noted: for IC50: MTT, 37° C., 48 h, mean ± SD; for IC50 ratio cisplatin/complex, SUNE1: IC50 of cisplatin divided by IC50 of complex.
Source text: as §1

For data set [5], the system named is multi-drug resistant cell line QGY-TR50. The experiment in a line: MTT cell viability assay, QGY-TR50. It counts as cell-based, human. The following applies: MTT, 37° C., 48 h; mean ± SD.
Source text: as §1

The subject of data set [6] is human hepatocellular carcinoma cells (Hep3B). The experiment in a line: MTT cell viability assay, Hep3B. It counts as cell-based. To be noted: 37° C., 48 h, mean ± SD.
Source text: as §1

Data set [7] concerns human cervical epitheloid carcinoma cells (HeLa). The experiment in a line: MTT cell viability assay, HeLa. The following applies: for IC50: MTT, 37° C., 48 h, mean ± SD of three experiments; for IC50 ratio cisplatin/complex, HeLa: IC50 of cisplatin divided by IC50 of complex. It counts as cell-based.
Source text: as §1

For data set [8], the system named is human hepatocellular cancinoma cells QGY-7703. The data set is described as follows: MTT cell viability assay, QGY-7703. It counts as cell-based. To be noted: MTT, 37° C., 48 h; mean ± SD.
Source text: as §1

The subject of data set [9] is human hepatocellular carcinoma cells (HepG2). The experiment in a line: MTT cell viability assay, HepG2. In kind it is cell-based. The following applies: for IC50: MTT, 37° C., 48 h, mean ± SD.
Source text: as §1

For data set [10], the system named is human coloadenocarcinoma cells (HCT-8). The experiment in a line: MTT cell viability assay, HCT-8. It counts as cell-based. To be noted: for IC50: MTT, 37° C., 48 h, mean ± SD; for IC50 ratio cisplatin/complex, HCT-8: IC50 of cisplatin divided by IC50 of complex.
Source text: as §1

Data set [11] concerns HeLa cells. The data set is described as follows: Effect of 3-MA on 1-induced cytotoxicity (MTT). In kind it is cell-based, human. The following applies: 3-MA 10 mM. As to the method: HeLa cells were pre-treated with 3-MA (10 mM) for 1 h, and then with 1 for 24 h as indicated. Cell viability was measured using MTT assay *, P<0.001. Effect of 3-MA on 1-induced cytotoxicity. Cells were seeded on 96-well microtitre plates (8×10^3 cells per well). After overnight incubation, the cells were pre-incubated with 3-methyladenine (3-MA, 10 mM) for 1 hour and then in the presence of 1 (DMSO<1%) for 24 h. Cell viability was measured by MTT assay as described before.

Another data set deals with calf thymus DNA. The experiment in a line: Absorption titration with calf thymus DNA. It counts as binding. The following applies: Tris buffer. The procedure:
The calf thymus DNA was purchased from Sigma-Aldrich Chemical Co. and was purified by phenol-chloroform extraction. The DNA was dissolved in buffer (5 mM Tris, 5 mM NaCl, pH 7.2). The concentration (per base pair) or calf thymus DNA was determined spectophotometrically on the basic of ε260, 13200 M^−1cm^−1bp.
Absorption Titration. Studying the interaction between drugs and DNA is imperative to pharmaceutical chemistry. Since complexation between a ligand molecule and a nucleic acid leads to optical changes, its binding can be studied using spectroscopic methods like fluorescence and electronic absorption spectroscopy (C. V. Kumar, E. H. Asuncion, J. Am. Chem. Soc. 1993, 115, 8547-8553). The binding interactions of lanthanide (III) porphyrin complexes with calf thymus DNA were investigated using UV-vis spectroscopy and depicted in FIGS. 9 and 10 (selected absorption curves were shown for clear plot). By monitoring wavelengths at 410 nm (complex 1) and 430 nm (complex 2b), successive additions of calf thymus DNA to the respective complexes in Tris buffer solution containing <5% DMSO were done until saturation. Moderate hyprochromicities of 27% and 23% in complexes 1 and 2b were found without significant bathochromic spectral shift. […] The values of binding constant K were calculated from a plot of D/Δεap versus D based on the following equation:
Where D is the concentration of DNA, Δεap=|ΔεA−ΔεB| wherein εA=Aobs/[complex], and Δε=|ΔεB−ΔεF|; εB and εF correspond to the extinction coefficients of DNA-bound lanthanide(III) porphyrin complex adduct and its free complex, respectively. By monitoring absorbance at 410 nm (complex 1) and 430 nm (complex 2b), plots of D/Δεap against D are inserted in FIGS. 9 and 10. Linear curves in two graphs were plotted with slopes of 4.63×10^−5 (complex 1) and 3.60×10^−5 (complex 2b) (both R=0.99).

Data set [12] can be described thus: Stability by UV-visible in DMSO/Tris buffer. In kind it is physicochemical. To be noted: DMSO/Tris buffer solution (1:9), 24 h, room temperature; complex 1 3 μM, complex 2b 7 μM. As to the method: UV-visible experiments. The absorption spectra of 3 μM of complex 1 in DMSO/Tris buffer solution (1:9) were monitored for 24 h. […] The complex was monitored over 24 h at room temperature and about 23% decrease in the Soret band intensity was recorded without any significant spectral shift in both Soret and Q-bands (FIG. 5). The absorption spectra of 7 μM of complex 2b in DMSO/Tris buffer solution (1:9) were also monitored for 24 h.

Data set [13] has as its system HeLa cells. The data set is described as follows: Confocal microscopy with AO/EB staining. It counts as cell-based, human. The following applies: complex 1 0.2 μM 20 h, complex 2b 10 μM 16 h. From the text:
Confocal Microscopic Experiment. By examining cell morphology under scanning confocal microscopy, the type of cell death can be distinguished. Early phase of apoptosis is characterized by the formation of apoptotic bodies when the integrity of the cell membrane is maintained without cell lysis. On the other hand, necrosis is characterized by cell lyses with the leaking out of internal cellular components such as DNA. With ethidium bromide (DNA stain) and acridine orange (cell membrane stain) as staining agents, normal, apoptotic and necrotic cells can be distinguished under laser confocal microscopy (Chan et. al., Inorg. Chem. 2002, 41, 3161-3171).

Data set [14] is described as follows: Stability by UV-visible in presence of reduced glutathione. It counts as physicochemical. To be noted: 6 mM GSH in DMSO/Tris buffer solution (1:9). The procedure: Moreover, concomitant band broadening in spectrum of complex 1 was observed after 24 h. No significant spectral shift and formation of new absorption band were observed. […] Comparing with the spectra of complex 1, the decrease in Soret band intensity of complex 2b is less significant. The intensities are only found to decrease in 2% and 19% after 2 h and 24 h, respectively. Also, there is no significant spectral shift and formation of new absorption band were observed (FIG. 8).

Where [15] appears, read: IC50 of cisplatin divided by IC50 of complex.

The IC50 is the point on the concentration scale where inhibition reaches its midpoint. Read a high IC50 as lower potency.

In the case of `N.N.[Cl][Pt][Cl]` [Cisplatin, cis-diamminedichloroplatinum[II], reference compound], the IC50 in data set [1] was 57.6 ± 4.6 µM; in data set [2], 35.4 ± 5 µM; in [3] it was 90.6 ± 42.3 µM; in data set [4], 11.8 ± 1.2 µM; in [5], 32.6 ± 1.94 µM; in [6], 39.8 ± 2.38 µM. In addition, the IC50 turned out to be 14.2 ± 8.2 µM in data set [7], 45.8 ± 4.13 µM in data set [8], 4.76 ± 0.7 µM in [9] and 26.1 ± 2.1 µM in [10].
On to `C1=Cc2nc1c(-c1ccccc1)c1ccc([n-]1)c(-c1ccccc1)c1nc(c(-c3ccccc3)c3ccc([n-]3)c2-c2ccccc2)C=C1.CC(=O)C=C(C)[O-].[Yb+3]` [Complex 2a], for which the IC50 in data set [2] is greater than 100 µM; in data set [3] it was 25.1 ± 2.6 µM; in data set [4], 16.2 ± 1.6 µM; in [7], 6.9 ± 0.1 µM; in [9], 17.1 ± 1.3 µM; in data set [10] it was 15.2 ± 6.1 µM. In addition, the “IC50 ratio cisplatin/complex, CCD-19Lu” value in data set [3] worked out at 3.6. Also, the “IC50 ratio cisplatin/complex, SUNE1” value in data set [4] came out at 0.7. Further, in [7], the “IC50 ratio cisplatin/complex, HeLa” value was 2.1. The “IC50 ratio cisplatin/complex, HepG2” value in data set [9] (setting [15]) came out at 0.3. In addition, the “IC50 ratio cisplatin/complex, HCT-8” value in [10] was determined as 1.7.
Turning to `Cn1cnc(N)c2ncnc1-2` [Complex 3-MA, 3-methyladenine, reference compound], the “cell viability after pre-treatment with 3-MA alone” value in the data set with HeLa cells [11] was “did not affect cell viability”.
For the molecule [Yb2(TPP)2]μ-C2O4 [Complex 2b], the “IC50 ratio cisplatin/complex, CNE2” value in data set [1] (setting [15]) is 3.4. For the same molecule, the IC50 in data set [1] was 16.8 ± 0.01 µM; in data set [2], greater than 100 µM; in data set [3] it was 16 ± 2.9 µM; in data set [4] it was 9.4 ± 0.3 µM; in data set [7], 2.1 ± 0.3 µM; in [10] it was 5.6 ± 1.5 µM. In addition, the “hyprochromicity on addition of calf thymus DNA” value with calf thymus DNA (<5% DMSO, until saturation, 410 nm (1), 430 nm (2b)) came out at 23%. For the same molecule, the “binding constant K with calf thymus DNA” value in the data set with calf thymus DNA (UV-vis absorption titration, 20° C.) was “(5.49±0.8)×10^5 mol^−1dm^3”. In data set [3], the “IC50 ratio cisplatin/complex, CCD-19Lu” value is listed as 5.6. Further, the “decrease in Soret band intensity” value in [12] is 5%. Besides, the “IC50 ratio cisplatin/complex, SUNE1” value in data set [4] was determined as 1.2. Further, the “IC50 ratio cisplatin/complex, HeLa” value in [7] worked out at 7.0. Moreover, the “IC50 ratio cisplatin/complex, HCT-8” value in data set [10] turned out to be 4.6. In the data set with HeLa cells [13], the “cell morphology (type of cell death) under confocal microscopy” value is “both living and apoptotic cells were observed”. Moreover, the “decrease in Soret band intensity, reduced glutathione, 2 h” value in data set [14] (2 h) amounted to 2%. For the same molecule, the “decrease in Soret band intensity, reduced glutathione, 24 h” value in data set [14] (24 h) came to 19%.
